Results as given in patent publication US4125610A, “Antibacterial compositions” (priority 1977, dated 1978).
Values after ≈ are worked out from the molar mass of the structure shown. Like-named read-outs stand apart in the source and are kept apart here.

Legend:
Ent. cloacae [1] = test: microbe, parasite or virus in culture; type: cell-based; settings: Enterobacter cloacae
Method: (§1) *The MIC's were determined by the twofold broth dilution method following
(§2) overnight incubation at 37° C in Meuller-Hinton Broth containing 2
(§3) lysed defibrinated horse blood and using 10^-4 dilutions of overnight
(§4) broth cultures (10^-3 dilutions of Staph. aureus strains A9606 and
(§5) A15097) as inocula at the rate of 0.5 ml of inoculum per 0.5 ml of […]

Pr. mirabilis [2] = test: microbe, parasite or virus in culture; type: cell-based
Method: as §1, §2, §3, §4, §5

Kl. pneumoniae [3] = test: microbe, parasite or virus in culture; type: cell-based; settings: Klebsiella pneumoniae
Method: as §1, §2, §3, §4, §5

Ps. aeruginosa = test: microbe, parasite or virus in culture; type: cell-based; settings: Pseudomonas aeruginosa
Method: as §1, §2, §3, §4, §5

Staph. aureus [4] = test: microbe, parasite or virus in culture; type: cell-based
Method: as §1, §2, §3, §4, §5

E. coli [5] = test: microbe, parasite or virus in culture; type: cell-based; settings: Escherichia coli
Method: as §1, §2, §3, §4, §5

[6] = system: experimental tuberculosis; settings: cited from earlier work
S. typhosa = settings: in vivo; cited from earlier work
Histoplasma capsulatum = settings: mouse, in vivo, iv; cited from earlier work
[7] = system: a variety of bacterial species; settings: cited from earlier work
P. mirabilis A9900 = test: animal or person; type: in vivo, mice; settings: Proteus mirabilis, A9900, in Mus musculus, po
K. pneumoniae A9977 = test: animal or person; type: in vivo, mice; settings: Klebsiella pneumoniae, A9977, in Mus musculus, po, read-out: PD50 /treatment
[8] = laboratory animals, cited from earlier work
[9] = system: experimental tuberculosis; settings: cited from earlier work; remark: listed apart in the source
Ent. cloacae [10] = test: microbe, parasite or virus in culture; type: cell-based; settings: Enterobacter cloacae; remark: listed apart in the source
Method: (§6) The geometric mean MIC's were determined from MIC's obtained in two separate tests of each of the strains of Staphylococcus and Proteus, and three separate tests for each of the other organisms.

Pr. mirabilis [11] = test: microbe, parasite or virus in culture; type: cell-based; settings: Proteus mirabilis
Method: as §6

Kl. pneumoniae [12] = test: microbe, parasite or virus in culture; type: cell-based; settings: Klebsiella pneumoniae; remark: listed apart in the source
Method: as §6

Pr. rettgeri = test: microbe, parasite or virus in culture; type: cell-based; settings: Providencia rettgeri
Method: as §6

Staph. aureus [13] = test: microbe, parasite or virus in culture; type: cell-based; settings: Staphylococcus aureus, read-out: Geometric Mean MIC
Method: as §6

Pr. vulgaris = test: microbe, parasite or virus in culture; type: cell-based; settings: for MIC: Proteus vulgaris
Method: as §6

E. coli [14] = test: microbe, parasite or virus in culture; type: cell-based; settings: Escherichia coli; remark: listed apart in the source
Method: as §6

Pr. morganii = test: microbe, parasite or virus in culture; type: cell-based; settings: Morganella morganii
Method: as §6

A20119 = test: Antibacterial activity, MIC by twofold broth dilution (Table 1), organism name not given; type: cell-based
Method: as §1, §2, §3, §4, §5

E. coli A15119 = test: animal or person; type: in vivo, mice; settings: Escherichia coli, A15119, in Mus musculus, po, read-out: PD50 /treatment
Ps. fluorescens = settings: in vivo; cited from earlier work
S. aureus A9537 = test: animal or person; type: in vivo, mice; settings: Staphylococcus aureus, A9537, in Mus musculus, po
S. pyogenes A9604 = test: animal or person; type: in vivo, mice; settings: Streptococcus pyogenes, A9604, in Mus musculus, po, read-out: PD50 /treatment
Plasmodium berghei = settings: in vivo; cited from earlier work

SMILES: Nc1ccc(P(=O)(O)O)cc1 [P, p-aminophenylphosphonic acid]
- MIC (Ent. cloacae [1]; strain A-9656): > 125 µg/mL
- MIC (Ent. cloacae [1]; strain A-9657): 63 µg/mL (≈ 364 µM)
- MIC (Ent. cloacae [1]; strain A-9659): > 125 µg/mL
- MIC (Pr. mirabilis [2]; Proteus mirabilis): > 125 µg/mL
- MIC (Pr. mirabilis [2]; Proteus mirabilis, strain A-9696): > 125 µg/mL
- MIC (Kl. pneumoniae [3]): > 125 µg/mL
- MIC (Kl. pneumoniae [3]; strain A15130): > 125 µg/mL
- MIC (Kl. pneumoniae [3]; strain A20468): > 125 µg/mL
- MIC (Ps. aeruginosa; strain A15151): 1 µg/mL (≈ 5.78 µM)
- MIC (Ps. aeruginosa; strain A20126): 16 µg/mL (≈ 92.4 µM)
- MIC (Ps. aeruginosa; strain A20227): 1 µg/mL (≈ 5.78 µM)
- MIC (Ps. aeruginosa; strain A20229): 63 µg/mL (≈ 364 µM)
- MIC (Ps. aeruginosa; strain A20543): 16 µg/mL (≈ 92.4 µM)
- MIC (Ps. aeruginosa; strain A20574): 1 µg/mL (≈ 5.78 µM)
- MIC (Ps. aeruginosa; strain A20602): 125 µg/mL (≈ 722 µM)
- MIC (Ps. aeruginosa; strain A-9843a): 4 µg/mL (≈ 23.1 µM)
- MIC (Ps. aeruginosa; strain A-9925): 16 µg/mL (≈ 92.4 µM)
- MIC (Staph. aureus [4]; Staphylococcus aureus): > 125 µg/mL
- MIC (Staph. aureus [4]; strain A15097, 10^-3 dilution inoculum): > 125 µg/mL
- MIC (Staph. aureus [4]; strain A-9606, 10^-3 dilution inoculum): > 125 µg/mL
- MIC (E. coli [5]): > 125 µg/mL
- MIC (E. coli [5]; strain A15119): > 125 µg/mL
- MIC (E. coli [5]; strain A-9671): > 125 µg/mL
- tubercularstatic activity in vitro [6]: good tubercularstatic activity in vitro
- efficacy in infected mice (S. typhosa): effective in vivo
- protective effect (Histoplasma capsulatum): some protective effect
- in vitro activity compared with sulfathiazole ([7]; molar basis): approached that of sulfathiazole
- in vitro activity ([7]; relative to the compounds tested): generally the most active of the compounds tested
- ED50 (P. mirabilis A9900; read-out: PD50 /treatment, oral, mice, challenge 6×10^6, 0 and 2 hr post-challenge): > 200 mg/kg
- ED50 (P. mirabilis A9900; read-out: PD50 /treatment, oral, mice, challenge 8×10^6, 0 and 2 hr post-challenge (1st P. mirabilis line)): > 800 mg/kg
- ED50 (P. mirabilis A9900; read-out: PD50 /treatment, oral, mice, challenge 8×10^6, 0 and 2 hr post-challenge (3rd P. mirabilis line)): > 200 mg/kg
- ED50 (K. pneumoniae A9977; 54 h): > 400 mg/kg
- ED50 (K. pneumoniae A9977): > 400 mg/kg
- absorption ([8]; blood level studies): poor absorption
- toxicity [8]: low toxicity
- effect in vivo [9]: no effect in vivo
- MIC (Ent. cloacae [10]; read-out: Geometric Mean MIC, 1 strain (1st Ent. cloacae line)): 8 µg/mL (≈ 46.2 µM)
- MIC (Ent. cloacae [10]; read-out: Geometric Mean MIC, 1 strain (3rd Ent. cloacae line)): > 125 µg/mL
- MIC (Ent. cloacae [10]; read-out: Geometric Mean MIC, 2 strains (4th Ent. cloacae line)): 63 µg/mL (≈ 364 µM)
- MIC (Ent. cloacae [10]; read-out: Geometric Mean MIC, 3 strains (2nd Ent. cloacae line)): 20 µg/mL (≈ 116 µM)
- MIC (Pr. mirabilis [11]; read-out: Geometric Mean MIC, 1 strain (3rd Pr. mirabilis line)): 11.3 µg/mL (≈ 65.3 µM)
- MIC (Pr. mirabilis [11]; read-out: Geometric Mean MIC, 1 strain (4th Pr. mirabilis line)): 16 µg/mL (≈ 92.4 µM)
- MIC (Pr. mirabilis [11]; read-out: Geometric Mean MIC, 2 strains (2nd Pr. mirabilis line)): > 105 µg/mL
- MIC (Pr. mirabilis [11]; read-out: Geometric Mean MIC, 4 strains (1st Pr. mirabilis line)): 7.3 µg/mL (≈ 42.2 µM)
- MIC (Kl. pneumoniae [12]; read-out: Geometric Mean MIC, 1 strain (2nd Kl. pneumoniae line)): 40 µg/mL (≈ 231 µM)
- MIC (Kl. pneumoniae [12]; read-out: Geometric Mean MIC, 1 strain (4th Kl. pneumoniae line)): > 125 µg/mL
- MIC (Kl. pneumoniae [12]; read-out: Geometric Mean MIC, 2 strains (3rd Kl. pneumoniae line)): 40 µg/mL (≈ 231 µM)
- MIC (Kl. pneumoniae [12]; read-out: Geometric Mean MIC, 5 strains (1st Kl. pneumoniae line)): 18 µg/mL (≈ 104 µM)
- MIC (Pr. rettgeri; read-out: Geometric Mean MIC, 1 strain (1st Pr. rettgeri line)): 0.5 µg/mL (≈ 2.89 µM)
- MIC (Pr. rettgeri; read-out: Geometric Mean MIC, 1 strain (2nd Pr. rettgeri line)): > 125 µg/mL
- MIC (Staph. aureus [13]): > 109 µg/mL
- MIC (Pr. vulgaris; read-out: Geometric Mean MIC, 1 strain (first listed Pr. vulgaris)): > 125 µg/mL
- MIC (Pr. vulgaris; read-out: Geometric Mean MIC, 2 strains (2nd Pr. vulgaris line)): 8 µg/mL (≈ 46.2 µM)
- component in the 16:1 mixture at its MIC as % of its individual MIC (Pr. vulgaris; first listed strain of Pr. vulgaris): < 3.0%
- amount of component in 4 μg/ml of the 16:1 mixture (Pr. vulgaris; first listed strain of Pr. vulgaris, 16:1 mixture at its MIC): 3.76 µg/mL
- MIC (E. coli [14]; read-out: Geometric Mean MIC, 1 strain (1st E. coli line)): 6.4 µg/mL (≈ 37 µM)
- MIC (E. coli [14]; read-out: Geometric Mean MIC, 2 strains (2nd E. coli line)): 18 µg/mL (≈ 104 µM)
- MIC (E. coli [14]; read-out: Geometric Mean MIC, 2 strains (3rd E. coli line)): > 125 µg/mL
- MIC (E. coli [14]; read-out: Geometric Mean MIC, 4 strains (4th E. coli line)): 20 µg/mL (≈ 116 µM)
- MIC (Pr. morganii; read-out: Geometric Mean MIC, 1 strain (1st Pr. morganii line)): > 125 µg/mL
- MIC (Pr. morganii; read-out: Geometric Mean MIC, 2 strains (2nd Pr. morganii line)): 11.3 µg/mL (≈ 65.3 µM)
- MIC (A20119): > 125 µg/mL
- ED50 (E. coli A15119; 3 h): > 400 mg/kg
- ED50 (E. coli A15119): > 400 mg/kg
- efficacy in infected mice (Ps. fluorescens): effective in vivo
- ED50 (S. aureus A9537; read-out: PD50 /treatment): > 400 mg/kg
- ED50 (S. aureus A9537; read-out: PD50 /treatment, oral, mice, challenge 1×10^5, 0 and 4 hr post-challenge): > 100 mg/kg
- ED50 (S. pyogenes A9604): > 400 mg/kg
- efficacy in infected mice (Plasmodium berghei): effective in vivo

SMILES: COc1cc(Cc2cnc(N)nc2N)cc(OC)c1OC [T, 2,4-diamino-5-(3',4',5'-trimethoxybenzyl)pyrimidine]
- MIC (Pr. mirabilis [2]): 4 µg/mL (≈ 13.8 µM)
- MIC (Pr. mirabilis [2]; Proteus mirabilis): 2 µg/mL (≈ 6.89 µM)
- MIC (Staph. aureus [4]; Staphylococcus aureus): 0.25 µg/mL (≈ 0.861 µM)
- ED50 (P. mirabilis A9900; read-out: PD50 /treatment): > 200 mg/kg
- ED50 (K. pneumoniae A9977; 54 h): 348 mg/kg
- MIC (Staph. aureus [13]): 0.5 µg/mL (≈ 1.72 µM)
- Geometric Mean MIC (Pr. vulgaris): 0.6 µg/mL
- amount of component in 4 μg/ml of the 16:1 mixture (Pr. vulgaris): 0.235 µg/mL
- component in the 16:1 mixture at its MIC as % of its individual MIC (Pr. vulgaris): 23%
- MIC (Pr. vulgaris; read-out: Geometric Mean MIC): 1 µg/mL (≈ 3.44 µM)
- MIC (A20119): 16 µg/mL (≈ 55.1 µM)
- ED50 (E. coli A15119; 3 h): 200 mg/kg
- ED50 (E. coli A15119): 262 mg/kg
- ED50 (S. pyogenes A9604): > 400 mg/kg
